Measured values: patent US11980621B2, “Gonadotropin-releasing hormone antagonist dosing regimens for the treatment of endometriosis” (ObsEva S.A., priority 2017, dated 2024)

How the values were obtained:
human GnRH receptor = target: T1, human GnRH receptor (Homo sapiens, UniProt P30968); test: affinity for human GnRH receptor; type: binding; conditions: type of constant (Ki/IC50/Kd) not stated
T1 sequence (P30968 1-328): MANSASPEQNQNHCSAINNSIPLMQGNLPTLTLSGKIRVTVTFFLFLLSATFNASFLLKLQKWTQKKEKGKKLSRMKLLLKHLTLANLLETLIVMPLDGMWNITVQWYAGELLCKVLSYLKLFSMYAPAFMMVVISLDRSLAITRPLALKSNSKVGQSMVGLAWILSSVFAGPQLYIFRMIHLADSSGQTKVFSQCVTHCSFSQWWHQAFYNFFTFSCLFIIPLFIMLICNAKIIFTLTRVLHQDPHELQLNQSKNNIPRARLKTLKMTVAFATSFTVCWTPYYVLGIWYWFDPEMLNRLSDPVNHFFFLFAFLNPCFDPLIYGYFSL

Japanese women = test: daily dosing in Japanese women (LH, E2, endometriosis-associated pain, safety); type: in vivo, human; conditions: doses between 50 and 200 mg daily
[1] = system: various animal models of endometriosis; test: animal models of endometriosis; type: in vivo
[2] = system: human female patients having endometriosis; test: 12-week oral treatment of endometriosis patients grouped by initial serum AMH; serum E2 concentration; type: in vivo
Experimental: In order to investigate the effects of GnRH antagonists, such as compound (I), (II), and pharmaceutically acceptable salts thereof, such as the choline salt thereof (compound (III)), on endometriosis patients presenting with distinct initial values of serum AMH, a series of experiments was conducted in which patients were divided into multiple treatment arms and orally administered either compound (III) or a placebo. Specifically, a series of n=327 human female patients having endometriosis were divided into five groups, and received either placebo, 50 mg/day of compound (III), 75 mg/day of compound (III), 100 mg/day of compound (III), or 200 mg/day of compound (III) by oral delivery. Treatment with the placebo or compound (III) at the doses specified above occurred continuously over a period of 12 weeks. At various time points throughout these experiments, patients were evaluated for their serum E2 concentration. As described herein, an objective of endometriosis therapy utilizing a GnRH antagonist is to suppress serum E2 values to within a range of from about 20 pg/ml to about 50 pg/ml or lower. Alleviation of endometriosis symptoms correlates with a reduction of serum E2, and achieving serum E2 levels that are either within this range or below are indicators of successful endometriosis treatment. To analyze the response of patients presenting with different initial AMH serum concentrations, patients were further divided into groups based on initial AMH serum level. These groups included patients having initial AMH serum concentrations of less than 15 pM, from 15 pM to 35 pM, or greater than 35 pM prior to commencing treatment with the GnRH antagonist.

| Compound | affinity for human GnRH receptor (human GnRH receptor) [nM] | endometriosis-associated pain (Japanese women) | luteinizing hormone (LH) (Japanese women) | safety and tolerability profile (Japanese women) | β17-estradiol (E2) (Japanese women) | E2 secretion [1] | serum LH concentration [1] | size of endometriotic lesions [1] | serum E2 concentration ([2]; 50 mg/day, 12-week treatment period, initial AMH serum concentration less than 15 pM (FIG. 1)) | suppression of serum E2 concentration ([2]; higher dosages, such as 100 mg/day and 200 mg/day, patients with higher initial serum AMH levels (FIG. 3)) | serum E2 ([2]; various daily doses, oral, 12 weeks, initial serum AMH from 15 pM to 35 pM (FIG. 2)) | serum E2 ([2]; various daily doses, oral, 12 weeks, initial serum AMH greater than 35 pM (FIG. 3)) | serum β17-estradiol (E2) ([2]; various daily doses, oral, 12 weeks, initial serum AMH less than 15 pM (FIG. 1)) |
| --- | --- | --- | --- | --- | --- | --- | --- | --- | --- | --- | --- | --- | --- |
| COc1cc(F)c(-n2c(=O)[nH]c3csc(C(=O)O)c3c2=O)cc1OCc1c(OC)ccc(F)c1F [Compound (II), 3-[2-fluoro-5-(2,3-difluoro-6-methoxybenzyloxy)4-methoxyphenyl]-2,4-dioxo-1,2,3,4-tetrahydrothieno[3,4d]pyrimidine-5-carboxylic acid] | 27.4 | significantly reduce | suppress | good safety and tolerability profile | suppress | significantly suppressing | significantly suppressing | significantly suppressing |  |  |  |  |  |
| COc1cc(F)c(-n2c(=O)[nH]c3csc(C(=O)O)c3c2=O)cc1OCc1c(OC)ccc(F)c1F [compound (III), choline 3-[2-fluoro-5-(2,3-difluoro-6-methoxybenzyloxy)4-methoxyphenyl]-2,4-dioxo-1,2,3,4-tetrahydrothieno[3,4d]pyrimidine-5-carboxylate] |  |  |  |  |  |  |  |  | achieve a reduction in serum E2 concentration | generally required for suppression of serum E2 concentration | dose-dependent suppression | dose-dependent suppression | dose-dependent suppression |
